Results: ChEMBL document CHEMBL1671711, “Serum and cerebrospinal fluid levels of colistin in pediatric patients” (Antimicrob Agents Chemother, 2010)
Values after ≈ are worked out from the molar mass of the structure shown.

Test system: Acinetobacter baumannii
Experiment: Antimicrobial activity against Acinetobacter baumannii
Type: functional

SMILES: C[C@@H](O)[C@H]1C(=O)N2C(C(=O)O)=C(S[C@@H]3CN[C@H](C(=O)N(C)C)C3)[C@H](C)[C@H]12 [MEROPENEM]
- MIC: 8 µg/mL (≈ 20.9 µM)
